The text below walks through data of the NIST ThermoML archive (doi:10.1016/j.fluid.2015.07.045).

± gives the expanded uncertainty stated by the source.

For series [1] the following is noted: 298.15 K; 101.33 kPa; Liquid; Vibrating tube method.
The nature of series [2]: Boiling temperature at pressure P. To be noted: 101.3 kPa; Liquid; Ebulliometric method (Recirculating still).

As usually defined, the mass density is the mass of a sample divided by its volume. For `CCCCCCn1cc[n+](C)c1.[Br-]` [3-hexyl-1-methyl-1H-imidazolium bromide], the mass density in series [1] is listed as 1229.2 ± 0.6 kg/m3. Consider `C[n+]1ccn(Cc2ccccc2)c1.[Cl-]` [1-benzyl-3-methyl-1H-imidazolium chloride], for which the mass density in series [1] is listed as 1192.8 ± 0.6 kg/m3. Regarding `CCCCCCn1cc[n+](C)c1.[Cl-]` [1-hexyl-3-methylimidazolium chloride], the mass density in series [1] was determined as 1044.3 ± 0.5 kg/m3. For the molecule `COC(C)=O` [methyl ethanoate], the mass density in series [1] was 927.3 ± 0.4 kg/m3. Moreover, the “Boiling temperature at pressure P” value in series [2] came out at 57.1 ± 0.1 °C. On to `CO` [methanol], for which the mass density in series [1] stood at 787.1 ± 0.4 kg/m3. For the same molecule, the “Boiling temperature at pressure P” value in series [2] was found to be 64.54 ± 0.1 °C.
